Measurements: US4293489A, “Derivatives of A-30912A nucleus” (Eli Lilly and Company, priority 1980, dated 1981)
Where two headings read alike, the source gives them in different places. Starred links: 1 amine or outer side, 2 acyl side, 3 side chain; linkers in the order of their positions; H or OH if unused. Positions of bridges follow the written chain, without caps; N, C: chain ends. Non-standard residues stand in square brackets, D forms with d. Residues, ends and D or L forms follow the SMILES beside them. *: point of attachment. Orn(4R-OH,5R-OH) = O=C([C@H](C[C@@H](O)[C@@H](O)N[*:3])N[*:1])[*:2]; hTyr(3S-OH,4S-OH) = N[C@H](C(=O)O)[C@H](O)[C@@H](O)c1ccc(O)cc1; Pro(3S-OH,4S-Me) = C[C@H]1CN[C@H](C(=O)O)[C@H]1O; Benzoyl(4-octyloxy) = CCCCCCCCOc1ccc(C(=O)*)cc1; X2 = CCCCCCCCCCCCCCS(=O)(=O)c1ccc(C(=O)*)cc1; Benzoyl(4-octyl) = CCCCCCCCc1ccc(C(=O)*)cc1; X5 = CCCCCCCCCCCCS(=O)(=O)c1ccc(C(=O)*)cc1; X20 = CCCCCCCCCCCCCCOc1ccc(C(=O)*)cc1; X18 = CCCCCCCCCCCCOc1ccc(CC(=O)*)cc1; X27 = CCCCCCCCCCCCOc1cccc(CC(=O)*)c1; X10 = CCCCCCCCCCCCOc1cccc(C(=O)*)c1; X1 = CCCCCCCCCCCCSc1ccc(C(=O)*)cc1; X16 = CCCCCCCCOc1ccc(C=CC(=O)*)cc1; X11 = CCCCCCCCOc1ccc(OCC(=O)*)cc1; Hyp = O=C(O)[C@@H]1C[C@@H](O)CN1; X19 = CCCCCCOc1ccc(C=CC(=O)*)cc1; X9 = CCCCCCCCCCOc1cccc(C(=O)*)c1; X12 = CCCCCCOc1ccc(CCC(=O)*)cc1; X7 = CCCCCCCCSc1ccc(C(=O)*)cc1; X14 = CCCCCCOc1ccc(C(=O)*)cc1; X17 = CCCCOc1ccc(CCC(=O)*)cc1

Columns and labels:
Candida albicans A-26 [1] = assay: Therapeutic activity against Candida albicans A-26 infection in mice, ED50; type: in vivo; conditions: Candida albicans, A26, sc, doses 0, 4 and 24 hours post infection, increase in survival time vs control, Reed-Muench, read-out: ED50
Experimental: (§1) The results of in vivo tests to evaluate the effectiveness of the compounds of Examples 3 and 4 against an infection caused by Candida albicans A-26 in mice are given in Table 13, where activity is measured by the ED50 value (the dose in mg/kg. required to cure 50% of the test animals). In a separate test, the results of which are also summarized in Table 13, activity is indicated by the lowest dose at which a significant anti-fungal effect is observed. In this test, groups of male albino mice (specific pathogen free), weighing 18 to 20 grams, are infected intravenously with Candida albicans A-26. The animals are X-irradiated 24 hours prior to infection at about 50 roentgens per minute for 8 minutes (400 total dose) to reduce immune responses to the infecting organism. At 0, 4, and 24 hours post infection each group of mice is given graded doses subcutaneously of the test compound as a suspension in 33% polyethylene glycol (PEG)-water. The day of death for each animal is recorded.
(§2) *Dosage Schedules: A. = 40, 20, 15 and 10 mg/kg; Dosages given 0, 4, and
(§3) 24 hours post injection as suspension of test compound in 30% PEGH2
(§4) O. Number of mice receiving test compounds at each dosage level: 6 mice
(§5) per group. Number of mice in control (untreated) group: 10 mice per group
**As measured by increase in survival time of treated animals versus
control, calculated by method of Reed v Mueuch, American J. Hygiene, 27,

Candida albicans A-26 [2] = assay: Therapeutic activity against Candida albicans A-26 infection in X-irradiated mice, lowest active dose; type: in vivo; conditions: A26, light or radiation study, sc
Experimental: as §1, §2, §3, §4, §5

[3] = X-irradiated mice, subcutaneous at 0, 4 and 24 hours post infection, survival, read-out: Lowest Active Dose
[4] = read-out: Lowest Active Dose, X-irradiated mice, subcutaneous at 0, 4 and 24 hours post infection, survival

| SMILES | ED50 (Candida albicans A-26 [1]) [mg/kg] | minimal effective dose (Candida albicans A-26 [2]; [3]) [mg/kg] | minimal effective dose (Candida albicans A-26 [2]; [4]) [mg/kg] |
| --- | --- | --- | --- |
| CCCCCCCCCCCCOc1cccc(CC(=O)N[C@H]2C[C@@H](O)[C@@H](O)NC(=O)[C@@H]3[C@@H](O)[C@@H](C)CN3C(=O)[C@H]([C@@H](C)O)NC(=O)[C@H]([C@H](O)[C@@H](O)c3ccc(O)cc3)NC(=O)[C@@H]3C[C@@H](O)CN3C(=O)[C@H]([C@@H](C)O)NC2=O)c1 (X27-[Orn(4R-OH,5R-OH)]T[Hyp][hTyr(3S-OH,4S-OH)]T[Pro(3S-OH,4S-Me)]; lactam 1-C) | 7.4 | 20 |  |
| CCCCOc1ccc(CCC(=O)N[C@H]2C[C@@H](O)[C@@H](O)NC(=O)[C@@H]3[C@@H](O)[C@@H](C)CN3C(=O)[C@H]([C@@H](C)O)NC(=O)[C@H]([C@H](O)[C@@H](O)c3ccc(O)cc3)NC(=O)[C@@H]3C[C@@H](O)CN3C(=O)[C@H]([C@@H](C)O)NC2=O)cc1 [drawing 170] (X17-[Orn(4R-OH,5R-OH)]T[Hyp][hTyr(3S-OH,4S-OH)]T[Pro(3S-OH,4S-Me)]; lactam 1-C) | > 40 | 40 |  |
| CCCCCCOc1ccc(C(=O)N[C@H]2C[C@@H](O)[C@@H](O)NC(=O)[C@@H]3[C@@H](O)[C@@H](C)CN3C(=O)[C@H]([C@@H](C)O)NC(=O)[C@H]([C@H](O)[C@@H](O)c3ccc(O)cc3)NC(=O)[C@@H]3C[C@@H](O)CN3C(=O)[C@H]([C@@H](C)O)NC2=O)cc1 [drawing 167] (X14-[Orn(4R-OH,5R-OH)]T[Hyp][hTyr(3S-OH,4S-OH)]T[Pro(3S-OH,4S-Me)]; lactam 1-C) | 28 | 20 |  |
| CCCCCCCCOc1ccc(C(=O)N[C@H]2C[C@@H](O)[C@@H](O)NC(=O)[C@@H]3[C@@H](O)[C@@H](C)CN3C(=O)[C@H]([C@@H](C)O)NC(=O)[C@H]([C@H](O)[C@@H](O)c3ccc(O)cc3)NC(=O)[C@@H]3C[C@@H](O)CN3C(=O)[C@H]([C@@H](C)O)NC2=O)cc1 [drawing 151] ({Benzoyl(4-octyloxy)}-[Orn(4R-OH,5R-OH)]T[Hyp][hTyr(3S-OH,4S-OH)]T[Pro(3S-OH,4S-Me)]; lactam 1-C) |  | < 12.5 | 10 |
| CCCCCCOc1ccc(C=CC(=O)N[C@H]2C[C@@H](O)[C@@H](O)NC(=O)[C@@H]3[C@@H](O)[C@@H](C)CN3C(=O)[C@H]([C@@H](C)O)NC(=O)[C@H]([C@H](O)[C@@H](O)c3ccc(O)cc3)NC(=O)[C@@H]3C[C@@H](O)CN3C(=O)[C@H]([C@@H](C)O)NC2=O)cc1 [drawing 175] (X19-[Orn(4R-OH,5R-OH)]T[Hyp][hTyr(3S-OH,4S-OH)]T[Pro(3S-OH,4S-Me)]; lactam 1-C) | 21.8 |  | 5 |
| CCCCCCCCCCCCCCS(=O)(=O)c1ccc(C(=O)N[C@H]2C[C@@H](O)[C@@H](O)NC(=O)[C@@H]3[C@@H](O)[C@@H](C)CN3C(=O)[C@H]([C@@H](C)O)NC(=O)[C@H]([C@H](O)[C@@H](O)c3ccc(O)cc3)NC(=O)[C@@H]3C[C@@H](O)CN3C(=O)[C@H]([C@@H](C)O)NC2=O)cc1 [drawing 162] (X2-[Orn(4R-OH,5R-OH)]T[Hyp][hTyr(3S-OH,4S-OH)]T[Pro(3S-OH,4S-Me)]; lactam 1-C) | 11 |  | 5 |
| CCCCCCCCCCCCCCOc1ccc(C(=O)N[C@H]2C[C@@H](O)[C@@H](O)NC(=O)[C@@H]3[C@@H](O)[C@@H](C)CN3C(=O)[C@H]([C@@H](C)O)NC(=O)[C@H]([C@H](O)[C@@H](O)c3ccc(O)cc3)NC(=O)[C@@H]3C[C@@H](O)CN3C(=O)[C@H]([C@@H](C)O)NC2=O)cc1 [drawing 154] (X20-[Orn(4R-OH,5R-OH)]T[Hyp][hTyr(3S-OH,4S-OH)]T[Pro(3S-OH,4S-Me)]; lactam 1-C) | 3 |  | 5 |
| CCCCCCCCCCOc1cccc(C(=O)N[C@H]2C[C@@H](O)[C@@H](O)NC(=O)[C@@H]3[C@@H](O)[C@@H](C)CN3C(=O)[C@H]([C@@H](C)O)NC(=O)[C@H]([C@H](O)[C@@H](O)c3ccc(O)cc3)NC(=O)[C@@H]3C[C@@H](O)CN3C(=O)[C@H]([C@@H](C)O)NC2=O)c1 [drawing 164] (X9-[Orn(4R-OH,5R-OH)]T[Hyp][hTyr(3S-OH,4S-OH)]T[Pro(3S-OH,4S-Me)]; lactam 1-C) | > 50 | > 40 |  |
| CCCCCCCCCCCCOc1ccc(CC(=O)N[C@H]2C[C@@H](O)[C@@H](O)NC(=O)[C@@H]3[C@@H](O)[C@@H](C)CN3C(=O)[C@H]([C@@H](C)O)NC(=O)[C@H]([C@H](O)[C@@H](O)c3ccc(O)cc3)NC(=O)[C@@H]3C[C@@H](O)CN3C(=O)[C@H]([C@@H](C)O)NC2=O)cc1 [drawing 178] (X18-[Orn(4R-OH,5R-OH)]T[Hyp][hTyr(3S-OH,4S-OH)]T[Pro(3S-OH,4S-Me)]; lactam 1-C) | 8.4 |  | 10 |
| CCCCCCCCOc1ccc(C=CC(=O)N[C@H]2C[C@@H](O)[C@@H](O)NC(=O)[C@@H]3[C@@H](O)[C@@H](C)CN3C(=O)[C@H]([C@@H](C)O)NC(=O)[C@H]([C@H](O)[C@@H](O)c3ccc(O)cc3)NC(=O)[C@@H]3C[C@@H](O)CN3C(=O)[C@H]([C@@H](C)O)NC2=O)cc1 [drawing 176] (X16-[Orn(4R-OH,5R-OH)]T[Hyp][hTyr(3S-OH,4S-OH)]T[Pro(3S-OH,4S-Me)]; lactam 1-C) | 3.75 |  | 5 |
| CCCCCCCCc1ccc(C(=O)N[C@H]2C[C@@H](O)[C@@H](O)NC(=O)[C@@H]3[C@@H](O)[C@@H](C)CN3C(=O)[C@H]([C@@H](C)O)NC(=O)[C@H]([C@H](O)[C@@H](O)c3ccc(O)cc3)NC(=O)[C@@H]3C[C@@H](O)CN3C(=O)[C@H]([C@@H](C)O)NC2=O)cc1 [drawing 169] ({Benzoyl(4-octyl)}-[Orn(4R-OH,5R-OH)]T[Hyp][hTyr(3S-OH,4S-OH)]T[Pro(3S-OH,4S-Me)]; lactam 1-C) | 30 | 40 |  |
| CCCCCCCCCCCCOc1cccc(C(=O)N[C@H]2C[C@@H](O)[C@@H](O)NC(=O)[C@@H]3[C@@H](O)[C@@H](C)CN3C(=O)[C@H]([C@@H](C)O)NC(=O)[C@H]([C@H](O)[C@@H](O)c3ccc(O)cc3)NC(=O)[C@@H]3C[C@@H](O)CN3C(=O)[C@H]([C@@H](C)O)NC2=O)c1 [drawing 165] (X10-[Orn(4R-OH,5R-OH)]T[Hyp][hTyr(3S-OH,4S-OH)]T[Pro(3S-OH,4S-Me)]; lactam 1-C) | > 50 | > 40 |  |
| CCCCCCCCOc1ccc(OCC(=O)N[C@H]2C[C@@H](O)[C@@H](O)NC(=O)[C@@H]3[C@@H](O)[C@@H](C)CN3C(=O)[C@H]([C@@H](C)O)NC(=O)[C@H]([C@H](O)[C@@H](O)c3ccc(O)cc3)NC(=O)[C@@H]3C[C@@H](O)CN3C(=O)[C@H]([C@@H](C)O)NC2=O)cc1 [drawing 179] (X11-[Orn(4R-OH,5R-OH)]T[Hyp][hTyr(3S-OH,4S-OH)]T[Pro(3S-OH,4S-Me)]; lactam 1-C) | 16.8 |  | 10 |
| CCCCCCCCCCCCSc1ccc(C(=O)N[C@H]2C[C@@H](O)[C@@H](O)NC(=O)[C@@H]3[C@@H](O)[C@@H](C)CN3C(=O)[C@H]([C@@H](C)O)NC(=O)[C@H]([C@H](O)[C@@H](O)c3ccc(O)cc3)NC(=O)[C@@H]3C[C@@H](O)CN3C(=O)[C@H]([C@@H](C)O)NC2=O)cc1 [drawing 157] (X1-[Orn(4R-OH,5R-OH)]T[Hyp][hTyr(3S-OH,4S-OH)]T[Pro(3S-OH,4S-Me)]; lactam 1-C) | 2 | < 1.25 |  |
| CCCCCCCCSc1ccc(C(=O)N[C@H]2C[C@@H](O)[C@@H](O)NC(=O)[C@@H]3[C@@H](O)[C@@H](C)CN3C(=O)[C@H]([C@@H](C)O)NC(=O)[C@H]([C@H](O)[C@@H](O)c3ccc(O)cc3)NC(=O)[C@@H]3C[C@@H](O)CN3C(=O)[C@H]([C@@H](C)O)NC2=O)cc1 [drawing 155] (X7-[Orn(4R-OH,5R-OH)]T[Hyp][hTyr(3S-OH,4S-OH)]T[Pro(3S-OH,4S-Me)]; lactam 1-C) | 37.4 |  | 10 |
| CCCCCCOc1ccc(CCC(=O)N[C@H]2C[C@@H](O)[C@@H](O)NC(=O)[C@@H]3[C@@H](O)[C@@H](C)CN3C(=O)[C@H]([C@@H](C)O)NC(=O)[C@H]([C@H](O)[C@@H](O)c3ccc(O)cc3)NC(=O)[C@@H]3C[C@@H](O)CN3C(=O)[C@H]([C@@H](C)O)NC2=O)cc1 [drawing 171] (X12-[Orn(4R-OH,5R-OH)]T[Hyp][hTyr(3S-OH,4S-OH)]T[Pro(3S-OH,4S-Me)]; lactam 1-C) | 9.2 |  | 5 |
| CCCCCCCCCCCCS(=O)(=O)c1ccc(C(=O)N[C@H]2C[C@@H](O)[C@@H](O)NC(=O)[C@@H]3[C@@H](O)[C@@H](C)CN3C(=O)[C@H]([C@@H](C)O)NC(=O)[C@H]([C@H](O)[C@@H](O)c3ccc(O)cc3)NC(=O)[C@@H]3C[C@@H](O)CN3C(=O)[C@H]([C@@H](C)O)NC2=O)cc1 [drawing 161] (X5-[Orn(4R-OH,5R-OH)]T[Hyp][hTyr(3S-OH,4S-OH)]T[Pro(3S-OH,4S-Me)]; lactam 1-C) | 53 | 20 |  |
